Assay results published in patent US10493043B2, “Pharmaceutical composition for preventing or treating autoimmune diseases comprising cedrol or derivatives thereof, or pharmaceutically acceptable salts thereof” (University of Seoul Industry Cooperation Foundation, priority 2017, dated 2019).

What was measured:
[1] = system: human IL-17A expression; experiment: IL-17A inhibition assay in IL-17 luciferase-(LUCPorter) stable reporter cell line; conditions: 10, 100, 1,000 μg/ml
[2] = system: psoriasis induced mice; experiment: Hair regrowth in psoriasis induced mice after termination of imiquimod application; type: in vivo, mouse; conditions: oral 100 mg/kg
Procedure: (§1) Imiquimod was applied to the psoriasis induced mice which had developed psoriasis for a week in Example <2-1>. The application was stopped 8 days after the application began. The groups CON and IMQ were treated with distilled water, the group C was treated with cedrol, the group CA was treated with cedryl acetate, the group CE was treated with alpha-cedrene alone at the concentration of 100 mg/kg in 200 ? , every day via oral-administration. Day 8 was the day the imiquimod application was stopped, since then the compounds were administered for 1 week once a day, during which photo-recording was performed (FIGS. 13A˜13D).
The psoriasis induced mice orally administered with cedrol, cedryl acetate, and alpha-cedrene of Example <3-1> were observed by the naked eye, and the number of mice showing hair regrowth was counted.

[3] = system: psoriasis induced mice; experiment: Delay of psoriasis development in imiquimod-induced mice (ear thickness, keratosis, skin flair, pain, hemorrhage spots, wrinkles); type: in vivo, mouse; conditions: for cumulative psoriasis area severity index (ear thickness, keratosis, skin flair), in words: oral 100 mg/kg once a day, FIG. 7; for number of mice showing hemorrhage spots / number of mice showing skin wrinkles / number of mice showing skin pain: oral 100 mg/kg
Procedure: (§2) To investigate the delayed effect of cedrol, cedryl acetate, and alpha-cedrene on the development of psoriasis, total 5 groups of mice were prepared (8 mice/group). First, the hair of the entire back of the 8-week-old male Balb/c mouse whose immune system was weakened was removed by using a hair clipper (Kimlaube Hair pen 325,327, Rikei, Korea). In the middle of the shaved back of the mouse, 2 mg of imiquimod (3M Health Care Limited, England) was applied in the area of 2 cm×1.5 cm and also 1,125 mg of imiquimod was applied on the right ear of the mouse every day once a day to induce psoriasis.
The mice prepared above were divided into the distilled water treated group (IMQ), the cedrol treated group (C), the cedryl acetate treated group (CA), and the alpha-cedrene treated group (CE). At this time, the mice were orally treated with distilled water at the concentration of 200 ? /mouse and cedrol or its derivatives at the concentration of 200 ? /mouse (100 mg/kg). The day when distilled water or the compound administration started was recorded as day 0 and the administration was performed once a day for a week, during which photo-recording was performed every day (FIGS. 2A˜2D). In the meantime, instead of applying imiquimod, 40 mg of vaseline was applied on the back of the control group (CONT) and 22.5 mg of vaseline was applied on the right ear of the control group. And the control group was orally administered with distilled water (200 ? /mouse).
Then, the psoriasis area severity index (PASI) was calculated with the range of 1˜4 to confirm the reduction effect of the compounds on the ear thickness.
Then, the psoriasis area severity index (PASI) was calculated to confirm the reduction effect of the compounds on keratosis. Keratosis is a symptom of psoriasis. The application of IMQ can induce keratosis.
Then, the psoriasis area severity index (PASI) was calculated to confirm the reduction effect of the compounds on skin flair. Skin flair is a symptom of psoriasis. The application of IMQ can induce skin flair.
The psoriasis area severity index obtained in Examples <2-3> and <2-5> was accumulated to compare the psoriasis area severity index for ear thickness, keratosis and skin flair of the mouse groups respectively treated with cedrol, cedryl acetate, and alpha-cedrene via oral-administration.
When the back of the psoriasis induced mice orally administered with cedrol, cedryl acetate, and alpha-cedrene of Example <2-1> was pinched, those mice who sound painfully with strong rejection were counted. Skin pain is a symptom of psoriasis, and when IMQ is applied, skin pain becomes stronger as time goes by.
The psoriasis induced mice orally administered with cedrol, cedryl acetate, and alpha-cedrene of Example <2-1> were observed by the naked eye, and the number of mice showing hemorrhage spots was counted. Hemorrhage spot is a symptom of psoriasis, and when IMQ is applied, the number of skin hemorrhage spots increases as time goes by.
The psoriasis induced mice orally administered with cedrol, cedryl acetate, and alpha-cedrene of Example <2-1> were observed by the naked eye, and the number of mice showing skin wrinkles was counted. Skin wrinkle is a symptom of psoriasis, and when IMQ is applied, skin keratinization increases and accordingly skin wrinkles are formed as time goes by.

[4] = system: psoriasis induced mice; experiment: Therapeutic (recovery) effect in psoriasis induced mice after termination of imiquimod application; type: in vivo, mouse; conditions: for PASI reflecting skin flair: distilled water 0.7±0.6; for number of mice showing hemorrhage spots / number of mice showing skin wrinkles: oral 100 mg/kg
Procedure: as §1
The psoriasis area severity index (Psoriasis Area Severity Index, PASI) was given from the point 1 to point 4, based on which the recovery effect on the ear thickness was evaluated.
Then, the psoriasis area severity index (Psoriasis Area Severity Index, PASI) was calculated, based on which the recovery effect on keratosis was evaluated.
The psoriasis area severity index obtained in Examples <3-2> and <3-4> was accumulated to compare the psoriasis area severity index for ear thickness, keratosis and skin flair of the mouse groups respectively treated with cedrol, cedryl acetate, and alpha-cedrene via oral-administration.
The psoriasis induced mice orally administered with cedrol, cedryl acetate, and alpha-cedrene of Example <3-1> were observed by the naked eye, and the number of mice showing the recovery of hemorrhage spots was counted.
The psoriasis induced mice orally administered with cedrol, cedryl acetate, and alpha-cedrene of Example <3-1> were observed by the naked eye, and the number of mice showing the recovery of skin wrinkles was counted.

[5] = Weight changes in psoriasis induced mice during oral administration; type: in vivo, mouse; conditions: oral 100 mg/kg once a day during IMQ application, for 7 days; IMQ alone reduced by 0.48 g
Procedure: as §2
The mice prepared above were divided into the distilled water treated group (IMQ), the cedrol treated group (C), the cedryl acetate treated group (CA), and the alpha-cedrene treated group (CE). […] The day when distilled water or the compound administration started was recorded as day 0 and the administration was performed once a day for a week, during which photo-recording was performed every day (FIGS. 2A˜2D). […]
To compare the weight changes in the psoriasis induced mice according to the oral administration of cedrol, cedryl acetate, and alpha-cedrene of Example <2-1>, the weight of each mouse was measured at the same time every day for a week.

[6] = day 7, 8 mice/group, IMQ alone 3 mice
[7] = day 7, 8 mice/group, IMQ alone 5 mice
[8] = oral 100 mg/kg once a day, day 16
[9] = day 16, distilled water 1 mouse
[10] = day 16, distilled water one mouse
[11] = oral 100 mg/kg once a day, day 15

SMILES | suppression of the expression of IL-17A (in words) [1] | number of mice showing hair regrowth ([2]; day 16, distilled water 5 mice) | cumulative psoriasis area severity index (ear thickness, keratosis, skin flair), in words [3] | number of mice showing hemorrhage spots ([3]; day 5, 8 mice/group) | number of mice showing skin wrinkles [3, 6] | number of mice showing hemorrhage spots [3, 7] | PASI reflecting skin flair [4, 8] | number of mice showing hemorrhage spots [4, 9] | number of mice showing skin wrinkles [4, 10] | number of mice showing skin wrinkles ([3]; day 5, 8 mice/group) | further results
CC1=CC[C@@]23C[C@@H]1C(C)(C)[C@@H]2CC[C@H]3C [alpha-cedrene, Alpha-cedrene] | dose-dependently | all the mice | strongest reduction effect | two mice | one mouse | one mouse | disappeared | no mouse | no mouse |  | number of mice showing hair regrowth ([2]; day 13): one mouse; number of mice showing skin wrinkles ([3]; day 6, 8 mice/group): one mouse; number of mice showing skin pain ([3]; during the 7 day observation period): no mice
C[C@@H]1CC[C@H]2C(C)(C)[C@H]3C[C@@]12CC[C@@]3(C)O [cedrol, Cedrol] | dose-dependently | all the mice |  |  |  |  | disappeared |  |  | one mouse | weight change (increase) [5]: 0.025 g; number of mice showing hemorrhage spots ([3]; day 4, 8 mice/group): one mouse; number of mice showing skin pain ([3]; day 4, 8 mice/group): one mouse; number of mice showing skin pain ([3]; day 5, 8 mice/group): no mice; cumulative psoriasis area severity index (ear thickness, keratosis, skin flair), recovery in words ([4]; oral 100 mg/kg once a day, FIG. 17): strongest recovery effect; PASI reflecting keratosis [4, 11]: recovered to normal; number of mice showing skin wrinkles ([4]; after day 15): no mouse; number of mice showing hemorrhage spots ([4]; day 12): no mouse
CC(=O)O[C@]1(C)CC[C@@]23C[C@@H]1C(C)(C)[C@@H]2CC[C@H]3C [cedryl acetate, Cedryl acetate] | dose-dependently |  | strongest reduction effect | one mouse | one mouse | one mouse |  | no mouse | no mouse | one mouse | number of mice showing hair regrowth ([2]; day 14, distilled water one mouse): one mouse; number of mice showing skin pain ([3]; day 6, 8 mice/group): one mouse; number of mice showing skin pain [3, 7]: no mice; PASI reflecting the ear thickness [4, 11]: recovered to normal
